From US9732151B2, “Biomarkers for TSLP treatment” (Merck Sharp & Dohme Corp., priority 2011, dated 2017)

Assays:
[1] = tested on: biomarker genes in lung tissue of TSLP Tg mice; test: qRT-PCR of biomarker genes in lung tissue, steroid-treated TSLP Tg mice; format: in vivo
Description: TSLP Tg mice, on the BALB/c background, were obtained from the laboratory of Steven Ziegler. Zhou et al., Nat. Immunol. 6:1047-53 (2005). Non-transgenic littermates served as control mice. BALB/c mice (for ovalbumin (OVA)-induced asthma experiments) were purchased from the Jackson Laboratory. The standard model of OVA-induced asthma described below was used. In dexamethasone-treatment experiments, 12 week-old TSLP Tg mice were injected i.p. daily for 2 weeks with 2 mg/kg dexamethasone 21-phosphate disodium salt (Sigma) in sterile PBS, or with sterile PBS alone as a control. Colonies were maintained in a specific pathogenic-free environment.
Harvest of murine BAL fluid, BAL cells, and lung tissue: BAL fluid was isolated by washing the lung (through the trachea) with 1mL of PBS. Lavage fluid was kept on ice and centrifuged at 400g for 5 min. The supernatant was frozen for cytokine analysis, and the cell pellet was resuspended in 1mL of PBS for total viable cell count by Vi-CELL ([…]) and cell differentials by cytospin. Slides were air-dried, fixed with 95% ethanol, and stained with Wright-Giemsa (Sigma-Aldrich). A minimum of 200 cells were counted under the microscope per slide for cell differentials. The postcaval lung lobe and BAL cells were collected and snap-frozen in liquid nitrogen for qRT-PCR analysis as described previously for tissue (Chan et al., J. Exp. Med. 203:2577-87 (2006)) and below for BAL cells. The single left lung lobe was excised for histology and clinical scoring as described below.
(§1) mRNA isolation from BAL cells and qRT-PCR: Total RNA was isolated from BAL cells using the RNeasy method (Qiagen, Valencia, Calif.) and reverse-transcribed using WT-OVATION ® (chemicals, assays, and reagents for nucleic acid sequence amplification, sequencing and sequence analysis and detection) Pico System (NuGen Technologies, San Carlos Calif.). Primers were designed using Primer Express software (Applied Biosystem, Foster City, Calif.) or obtained commercially from Applied Biosystems (ABI). qRT-PCR was performed on 10 ng of cDNA from each sample as described previously. Chan et al., J. Exp. Med. 203:2577-87 (2006).

[2] = tested on: biomarkers in BAL fluid or cell mRNA; test: Table VIII summary: biomarkers down with steroids in BAL fluid or BAL cell mRNA; format: in vivo, mice
From the text: as §1
Western blot analysis of BAL fluid samples: Western blot analysis was performed on BAL fluid samples. 200 uL of each BAL fluid sample was acetone precipitated in 4 volumes of cold acetone overnight and resuspended in 1× NUPAGE® (chemical preparations used for life sciences research) LDS sample loading buffer. An equal amount was separated on a 4-12% NUPAGE® (chemical preparations used for life sciences research) gels, and gels were electroblotted onto PVDF membranes overnight at 10V in NUPAGE® (chemical preparations used for life sciences research) transfer buffer. Membranes were blocked in 5% fat-free milk in TBS/T (10mM TrisHC1 pH 7.5, 100 mM NaC1, 0.1% TWEEN® 20 (polysorbate 20)) for 1 hour and incubated with specific antibodies according to the manufacturer's instructions in 1% milk in TBS/T for another 2 hours. Blots were incubated with HRP-labeled secondary antibodies (chicken anti-goat) IgG, R&D Systems, Minneapolis, Minn. or donkey anti-rabbit Ig-G, GE Healthcare, Piscataway, N.J.) in 1% milk in TB S/T for another hour and detection was performed with ECL+(GE Healthcare). Primary antibodies used included anti-mouse LCN2, anti-mouse sICAM-1, anti-human sICAM-1 (for monkey studies), anti-mouse GP-39, anti-mouse YM1, and anti-mouse pIgR (all from R&D Systems); and anti-mouse UG, anti-mouse AMCase, anti-human AMCase (for monkey studies), anti-mouse CLCA3, and anti-human CLCA1 (for monkey studies) (all from Santa Cruz Biotechnology, Santa Cruz, Calif.). Polyclonal anti-mouse Reg3γ was generated at Schering-Plough Biopharma. After autoradiography visualization, membranes were dried and scanned on a Typhoon 9400 (GE Healthcare) for ECL+(457 nm excitation and 520BP40 emission). Image analysis was conducted using ImageQuant v5.2 (GE Healthcare) and band intensity reported as sum of pixel values above background.
ELISAs: Mouse LCN2, GP-39, sICAM-1, and YM1 proteins were quantified using QUANTIKINE® (in vitro immunoassay kits) or DUOSET® (biological reagents for use in research applications to identify cytokines by immunoassay) ELISA kits (R&D Systems) using a Vmax spectrophotometer with SoftMax Pro software (Molecular Devices); mouse IL-4, IL-5, and IL-13 were measured using a Luminex 100 machine with LINCOPLEX® (panels for taking immunoassay measurements and testing cytokine and endocrine hormones) multiplex kits (Millipore) and analyzed with MasterPlex software (Miraibio). Monkey YKL-40 was quantified via ELISA (Quidel), analyzed as above.

[3] = tested on: biomarker genes in skin of calcipotriol treated mice; test: Vitamin D (calcipotriol) induced skin inflammation, real-time PCR of skin mRNA, +/- anti-TSLP; format: in vivo, mice (Balb/c); settings: calcipotriol 2 nmol/ear daily, skin at day 8 (FIG. 5)
Description: (§2) Vitamin D Induced Skin Inflammation: The vitamin D analogue, calcipotriol (Tocris, Ellisville, Mo.), was dissolved in ethanol and was applied daily to both sides of the ears at a final concentration of 2 nmol/ear. Control animals were given ethanol only. Ear swelling was measured daily using an engineer's pressure gauge (Peacock, Japan) and blood was collected. The blood was spun at 10.000 rpm for 5 minutes to separate the serum, which was frozen at −80 C. until analyzed by ELISA. Calcipotriol applications were stopped on day 8 (Balb/c mice), ears were harvested and fixed in 10% formalin for pathological evaluation or frozen directly in liquid nitrogen for mRNA extraction.
Neutralization Experiments: mice were treated with 0.1, 0.4, 1, 4, 12, 40 and 120 mgs per kg (mpk) of a rat anti-mouse TSLP antibody (designated “22E5”) subcutaneously (s.c.) one day (d−1) prior to VitD3 treatment. Control mice received isotype antibody at 4 and 40 mpk. The mice were sacrificed at day 8.
Real-time PCR was conducted on mRNA extracted from skin tissue of mice treated with calcipotriol in the absence or the presence of an antagonistic anti-TSLP antibody or an isotype control

[4] = tested on: biomarker genes in skin of TSLPR KO mice; test: Calcipotriol skin inflammation in TSLPR KO mice, real-time PCR of skin mRNA; format: in vivo; settings: calcipotriol vs ethanol
Description: as §2, with “Mice: Six- to eight-week-old Balb/c were obtained from Jackson Labs (Bar Harbour, Me.). TSLPR KO mice were obtained from Dr. W. Leonard, NIH, Bethesda, Md. (Al Shami et al., J. Exp. Med. 200:159-168 (2004). Age-matched males were used for the time-course study and females for two efficacy studies. Vitamin” for “Vitamin”, “-80” for “−80”, “extraction. […] Similarly, real-time PCR was conducted on mRNA extracted from skin tissue of TSLPR KO mice treated with either ethanol (vehicle control) or calcipotriol.” for “extraction.”

[5] = tested on: biomarker proteins in BAL fluid of HDMA-challenged monkeys; test: BAL fluid biomarkers (western blot, ELISA) in HDMA-challenged monkeys before and after corticosteroid therapy; format: in vivo, cynomolgus macaques (Macaca fascicularis)
Description: Western blot analysis of BAL fluid samples: Western blot analysis was performed on BAL fluid samples. 200 uL of each BAL fluid sample was acetone precipitated in 4 volumes of cold acetone overnight and resuspended in 1× NUPAGE® (chemical preparations used for life sciences research) LDS sample loading buffer. An equal amount was separated on a 4-12% NUPAGE® (chemical preparations used for life sciences research) gels, and gels were electroblotted onto PVDF membranes overnight at 10V in NUPAGE® (chemical preparations used for life sciences research) transfer buffer. Membranes were blocked in 5% fat-free milk in TBS/T (10mM TrisHC1 pH 7.5, 100 mM NaC1, 0.1% TWEEN® 20 (polysorbate 20)) for 1 hour and incubated with specific antibodies according to the manufacturer's instructions in 1% milk in TBS/T for another 2 hours. Blots were incubated with HRP-labeled secondary antibodies (chicken anti-goat) IgG, R&D Systems, Minneapolis, Minn. or donkey anti-rabbit Ig-G, GE Healthcare, Piscataway, N.J.) in 1% milk in TB S/T for another hour and detection was performed with ECL+(GE Healthcare). Primary antibodies used included anti-mouse LCN2, anti-mouse sICAM-1, anti-human sICAM-1 (for monkey studies), anti-mouse GP-39, anti-mouse YM1, and anti-mouse pIgR (all from R&D Systems); and anti-mouse UG, anti-mouse AMCase, anti-human AMCase (for monkey studies), anti-mouse CLCA3, and anti-human CLCA1 (for monkey studies) (all from Santa Cruz Biotechnology, Santa Cruz, Calif.). […] After autoradiography visualization, membranes were dried and scanned on a Typhoon 9400 (GE Healthcare) for ECL+(457 nm excitation and 520BP40 emission). Image analysis was conducted using ImageQuant v5.2 (GE Healthcare) and band intensity reported as sum of pixel values above background.
At this time, animals were challenged with nebulized HDMA (1 to 2500 AU/mL for 4 minutes) at a concentration that induced an early asthmatic response, defined as a 100% increase in lung resistance, 40% decrease in dynamic compliance, or decline in arterial oxygen saturation to ≦70%. Airway inflammation and reactions to nebulized histamine and methacholine 24 hours after allergen challenge were measured periodically to confirm chronic asthmatic responses. Wardle-Fick methods were used to obtain BAL fluid. BAL cells were then separated from the fluid phase. […] In corticosteroid treatments experiments, animals were challenged with HDMA and BAL fluid was collected 24 hours later (“Pre”).

[6] = tested on: HDMA-challenged monkeys; test: Asthma symptoms in HDMA-induced asthma in nonhuman primates after corticosteroid treatment; format: in vivo, cynomolgus macaques (Macaca fascicularis); settings: high-dose corticosteroids for 2 weeks, data not shown
From the text: House mite allergen (HDMA)-induced asthma in nonhuman primates: Juvenile macaques (Cynomolgus fascicularis, 30 to 42 months of age) were purchased from Alphagenesis (Yemassee, S.C.). Animals were sensitized to HDMA over a 7.5 month period by intraperitoneal injection of 312 AU Dermatophagoides pteronyssinus extract (Greer Laboratories, Lenoir, N.C.) absorbed to IMJECT® (reagents used in connection with enhancing immune responses) Alum (Pierce, Rockford, Ill.) administered every two weeks until HDMA-specific IgE titers approached levels in control allergic serum, and then at 4-week intervals until aeroallergen challenge. At this time, animals were challenged with nebulized HDMA (1 to 2500 AU/mL for 4 minutes) at a concentration that induced an early asthmatic response, defined as a 100% increase in lung resistance, 40% decrease in dynamic compliance, or decline in arterial oxygen saturation to ≦70%. Airway inflammation and reactions to nebulized histamine and methacholine 24 hours after allergen challenge were measured periodically to confirm chronic asthmatic responses. Wardle-Fick methods were used to obtain BAL fluid. BAL cells were then separated from the fluid phase. Mass spectrometry compared BAL fluid from sensitized animals before and after HDMA challenge. In corticosteroid treatments experiments, animals were challenged with HDMA and BAL fluid was collected 24 hours later (“Pre”). Animals then received weekly doses of methylprednisolone succinate (4.5 mg/kg intramuscularly) for two weeks, followed by a single dose of methylprednisolone acetate (10 mg/kg […].) one week later at the time of allergen challenge. BAL fluid was collected 24 hours following challenge (“Post”). Animal husbandry was conducted under USDA guidelines. All protocols were approved by the Institutional Animal Care and Use Committee of East Carolina University.

C[C@@H]1C[C@H]2[C@@H]3CCC4=CC(=O)C=C[C@]4(C)[C@@]3(F)[C@@H](O)C[C@]2(C)[C@@]1(O)C(=O)CO [Steroids, dexamethasone]
Down with Steroids (Lung Tissue): CLCA3 [1]: — (a dash indicates a biomarker not reduced upon treatment)
Down with Steroids (Lung Tissue): Chi3l4 (YM2) [1]: — (a dash indicates a biomarker not reduced upon treatment)
Down with Steroids (Lung Tissue): ECP (Ear11) [1]: — (a dash indicates a biomarker not reduced upon treatment)
Down with Steroids (Lung Tissue): FCGBP [1]: — (a dash indicates a biomarker not reduced upon treatment)
Down with Steroids (Lung Tissue): ICAM-1 [1]: — (a dash indicates a biomarker not reduced upon treatment)
Down with Steroids (Lung Tissue): LCN2 [1]: — (a dash indicates a biomarker not reduced upon treatment)
Down with Steroids (Lung Tissue): PGLYRP1 [1]: — (a dash indicates a biomarker not reduced upon treatment)
Down with Steroids (Lung Tissue): RETNLβ [1]: — (a dash indicates a biomarker not reduced upon treatment)
Down with Steroids (Lung Tissue): Reg3γ [1]: — (a dash indicates a biomarker not reduced upon treatment)
Down with Steroids (BAL fluid or cell mRNA): AMCase (Chia) [2]: — (a dash indicates a biomarker not reduced upon treatment)
Down with Steroids (BAL fluid or cell mRNA): ECP (Ear11) [2]: — (a dash indicates a biomarker not reduced upon treatment)
Down with Steroids (BAL fluid or cell mRNA): LTF [2]: — (a dash indicates a biomarker not reduced upon treatment)
Down with Steroids (BAL fluid or cell mRNA): MMP12 [2]: — (a dash indicates a biomarker not reduced upon treatment)
Down with Steroids (BAL fluid or cell mRNA): Reg3γ [2]: — (a dash indicates a biomarker not reduced upon treatment)

C=C1/C(=C\C=C2/CCC[C@]3(C)[C@@H]([C@H](C)/C=C/[C@@H](O)C4CC4)CC[C@@H]23)C[C@@H](O)C[C@@H]1O [calcipotriol]
upregulation of EAR11, MMP12, LCN2, YM1, YM2, YKL-40, Reg3 g, PGLYRP1, CD44 mRNA in skin [3]: ≥ 2 fold
EAR11, MMP12, and YM2 mRNA in skin [4]: not upregulated

C[C@H]1C[C@@H]2[C@H]([C@@H](O)C[C@@]3(C)[C@H]2CC[C@]3(O)C(=O)COC(=O)CCC(=O)O)[C@@]2(C)C=CC(=O)C=C12 [corticosteroid, methylprednisolone succinate]
disease biomarkers in BAL fluid ([5]; HDMA-challenged monkeys, 2 weeks of corticosteroid therapy (FIG. 4)): Reduction
expression of LCN2, UG, pIgR, PAP, and CLCA1 in BAL fluid ([5]; Post vs Pre corticosteroid, trending downward, data not shown): not significantly reduced
GP-39 in BAL fluid ([5]; by ELISA, Post vs Pre corticosteroid (FIG. 4B)): significantly reduced
AMCase, sICAM-1, CLCA1 in BAL fluid ([5]; by western blot, Post vs Pre corticosteroid (FIG. 4A)): significantly reduced
airway eosinophil recruitment [6]: reduced
asthma symptoms [6]: reduced
lung function [6]: improved
